Laboratory results taken from patent publication US20200093835A1, “METHODS OF TREATING VESTIBULAR SCHWANNOMA” (Massachusetts Eye and Ear Infirmary, priority 2017, published 2020).

Assays:
HEI-193 cells [1] = test: ELISA for progesterone in conditioned cell culture medium; type: cell-based, human; conditions: 35 μM versus 0.1% DMSO vehicle; p=0.08
Description: Cell-conditioned medium was collected from mifepristone-treated and untreated HEI-193 cells after 72-hour incubation with the drug. Enzyme-linked immunosorbent assay (ELISA) was performed on each sample in triplicate to assess the quantity of progesterone in cell-conditioned medium, according to the manufacturer's protocol (Enzo Life Science, # ADI-900-011). Data were analyzed using GraphPad Prism 7 software licensed through Harvard Medical School.

HEI-193 cells [2] = test: Cell confluence and phase contrast imaging (IncuCyte), HEI-193; type: cell-based, human
Description: HEI-193 cells are derived from a patient with sporadic bilateral vestibular schwannomas and a history of meningioma; these cells express a splice variant of the merlin protein (encoded by the NF2 gene), but neither typical isoform^52. HEI-193 cells were cultured in DMEM/F12-containing medium with 10% fetal bovine serum and 1% penicillin and streptomycin mix as described above. Immortalized NF2-null and NF2-expressing arachnoid AC-CRISPR cell lines derived from primary human autopsy specimens were obtained via generous gift from Dr. Vijaya Ramesh at Massachusetts General Hospital^40. NF2-null and NF2-expressing arachnoid cells were cultured in DMEM with 15% fetal bovine serum and 1% penicillin and streptomycin mix. […]
Cytotoxicity and cell confluence were measured using live-cell, time-lapse phase contrast and fluorescence imaging acquired at 10× by an IncuCyte S3 instrument (Essen Bioscience). Cytotoxicity was measured by incorporation of IncuCyte Cytotox Reagent (Essen Bioscience), applied according to manufacturer's instructions; the reagent fluoresces when it binds DNA after compromise of membrane integrity. […] Phase object confluence was measured using time-lapse phase contrast imaging acquired at 10× by the same instrument, analyzing 9 images per well every 2 hours for 72 hours, and is reported as percent confluence per square millimeter.

HEI-193 cells [3] = test: Proliferation assay (BrdU incorporation), HEI-193; type: cell-based, human; conditions: 35 μM, 72 h; p=0.0007
Description: 5′bromo-2′-deoxyuridine (BrdU) was added to label proliferating cells in culture 2 hours before fixation in 4% formalin (paraformaldehyde). Cell membranes were permeabilized with 10 minutes of incubation in 1% Triton X-100 and nuclear membranes with 20 minutes in 2N hydrochloric acid (HCl). Cells were blocked in 5% normal horse serum (NHS) and 1% Triton X-100 and incubated with a primary antibody against BrdU (# OBT0030G, AbD Serotec) overnight, followed by incubation with fluorescent anti-rat immunoglobulin G (AlexaFluor, Life Technologies).

[4] = in vivo; cited from earlier work
[5] = test system: AC-CRISPR NF2(−/−) and AC-CRISPR NF2(+/+) human arachnoid cells; test: Metabolic viability, arachnoid cells versus schwannoma cells; type: cell-based
Description: (§1) HEI-193 cells are derived from a patient with sporadic bilateral vestibular schwannomas and a history of meningioma; these cells express a splice variant of the merlin protein (encoded by the NF2 gene), but neither typical isoform^52. HEI-193 cells were cultured in DMEM/F12-containing medium with 10% fetal bovine serum and 1% penicillin and streptomycin mix as described above. Immortalized NF2-null and NF2-expressing arachnoid AC-CRISPR cell lines derived from primary human autopsy specimens were obtained via generous gift from Dr. Vijaya Ramesh at Massachusetts General Hospital^40. NF2-null and NF2-expressing arachnoid cells were cultured in DMEM with 15% fetal bovine serum and 1% penicillin and streptomycin mix. All cell lines were maintained in an incubator at 37 degrees Celsius with 5% carbon dioxide and treated with drugs 24-36 hours after seeding at between 15,000-25,000 cells per well in 24-well plates. Phase contrast photos of healthy and drug-treated cultures were taken at 10× magnification on an IncuCyte S3 instrument (Essen Bio).
(§2) The metabolic activity of primary VS and HEI-193 cells was assessed using the colorimetric 3-(4,5-dimethylthiazol-2-yl)-2,5-diphenyltetrazolium bromide (MTT) assay (Life Technologies). […] Optical density (OD) at 570 nm of each well was detected using a spectrophotometer. […]

primary human VS cells [6] = test: Proliferation assay (BrdU incorporation), primary VS cells
primary human VS cells [7] = test: Cytotoxicity assay (IncuCyte Cytotox Reagent), primary VS cells; type: cell-based; conditions: 35 μM, 72 hours, live cell fluorescence microscopy
Description: Cytotoxicity and cell confluence were measured using live-cell, time-lapse phase contrast and fluorescence imaging acquired at 10× by an IncuCyte S3 instrument (Essen Bioscience). Cytotoxicity was measured by incorporation of IncuCyte Cytotox Reagent (Essen Bioscience), applied according to manufacturer's instructions; the reagent fluoresces when it binds DNA after compromise of membrane integrity. Nine images were acquired per well every 2 hours for 72 hours, and cytotoxicity at each time point is reported as number of fluorescent objects per well, after thresholding to avoid the inclusion of small cellular debris. Phase object confluence was measured using time-lapse phase contrast imaging acquired at 10× by the same instrument, analyzing 9 images per well every 2 hours for 72 hours, and is reported as percent confluence per square millimeter.

HEI-193 cells [8] = test: Flow cytometry, annexin V/propidium iodide staining; type: cell-based, human; conditions: 35 μM, 72 h, versus vehicle
Description: Apoptotic cell death was assessed using an Annexin V/propidium iodide (PI) staining kit (Miltenyi Biotec). […] Adherent cells were collected by trypsinization, and non-adherent (floating) cells were collected from culture medium. Cells were centrifuged, washed in PBS, and incubated in 1× annexin binding buffer, annexin V-fluorescein isothiocyanate (FITC), and propidium iodide (PI) according to the manufacturer's recommendations. Stained cells were immediately analyzed using a Cytomics FC500 flow cytometer. Data were analyzed using CXP Analysis software (version 2.2, Coulter).

primary human VS cells [9] = test: Metabolic activity (MTT) assay, primary VS cells; type: cell-based
Description: Written informed consent was obtained from all subjects prior to inclusion in this study and all procedures were conducted in accordance with the Helsinki Declaration of 1975. Detailed methods for human surgical specimen collection, processing, and culture are previously published^38. VS specimens were harvested from patients undergoing surgical tumor resection, and GAN specimens from healthy patients undergoing benign parotidectomy or neck dissection surgery, during which the GAN is routinely sacrificed. Patients who had received radiation therapy prior to surgery were excluded.
Briefly, after surgical resection, VS or GAN tissue was immediately placed in saline solution and transported to the laboratory on ice. Specimens were rinsed with Hank's Balanced Salt Solution (HBSS, ThermoFisher Scientific), dissected to remove burned tissue and blood vessels, and separated for RNA preservation (RNALater, ThermoFisher Scientific) or primary cell culture. […]
as §2

HEI-193 cells [10] = test: Cell cycle analysis; type: cell-based, human; conditions: 72 h treatment
Description: Harvested HEI-193 cells were washed in PBS and fixed in cold 70% ethanol at −20° C. for 18-72 h. Before staining with propidium iodide (PI), cells were centrifuged and washed again in cold PBS. 2×10^6 or fewer cells were incubated with 500 μl staining solution [0.1% Triton X-100 (Sigma), 2 mg/ml RNase A (Qiagen), and 1 μg/ml PI (Miltenyi Biotec) in PBS] for 15 minutes at 37° C. In order to exclude DNAse activity, RNase A was boiled for 5 minutes and cooled down before its addition to staining solution. Cells were analyzed on a Cytomics FC500 flow cytometer using CXP Analysis software (version 2.2, Coulter).

HEI-193 cells [11] = test: Phalloidin staining of f-actin, HEI-193; type: cell-based, human; conditions: 35 μM, 72 hours
HEI-193 cells [12] = test: Caspase 3/7 activation by live-cell imaging, HEI-193; type: cell-based, human; conditions: 70 μM and 35 μM, over 100 h, versus vehicle
[13] = test system: primary human Schwann cells; test: Metabolic activity (MTT) assay, primary Schwann cells; type: cell-based; conditions: p=0.23
[14] = test system: HEI-193 human schwannoma cells; test: Metabolic activity (MTT) assay, HEI-193; type: cell-based; conditions: for HEI-193 cell metabolic activity: 72 h; for metabolic activity of HEI-193 cells: preliminary testing, clinically reasonable concentrations
Description: as §1
Cultures were incubated with drug-containing medium or 0.1% DMSO vehicle for 72 hours and then processed for downstream applications.
The metabolic activity of primary VS and HEI-193 cells was assessed using the colorimetric 3-(4,5-dimethylthiazol-2-yl)-2,5-diphenyltetrazolium bromide (MTT) assay (Life Technologies). After 72-hour incubation of cells in a 24-well plate with medium containing drug or vehicle, culture medium was replaced with 362 μL of colorless DMEM and 38 μL of 12 mM MTT in 3-6 random wells. Cells were incubated for an additional 4 hours. The resulting formazan crystals were dissolved in 380 μL of a solution of 100 mg/mL sodium dodecyl sulfate in 0.01 M HCl and incubated for another 4 hours. Optical density (OD) at 570 nm of each well was detected using a spectrophotometer. The average OD value of cells exposed to vehicle (0.1% DMSO) was set to 100% and used to normalize OD values of cells treated with drugs; metabolic activity was then reported as percent change. Statistical testing was performed on raw OD values (see Statistical Methods).

HEI-193 cells [15] = test: TUNEL assay, HEI-193; type: cell-based, human; conditions: 72 h, versus vehicle
unresectable meningioma = conditions: cited from earlier work
primary VS cells = test: Cell death (TUNEL) assay, primary VS cells; type: cell-based, human; conditions: 25 μM, 72 h

Compound: CC#C[C@]1(O)CC[C@H]2[C@@H]3CCC4=CC(=O)CCC4=C3[C@@H](c3ccc(N(C)C)cc3)C[C@@]21C [mifepristone, 11β-(4-dimethylaminophenyl)-17β-hydroxy-17α-(1-propynyl)-estra-4,9-dien-3-one]
- progesterone in culture medium (HEI-193 cells [1]): increase in progesterone in culture medium
- phase object confluence (HEI-193 cells [2]; 35 μM, 72 hours): remains constant
- cell shape under treatment (HEI-193 cells [2]; phase contrast, FIG. 2C): long, thin, spindle-like shape
- percentage of BrdU+ HEI-193 cells (HEI-193 cells [3]): significantly declines
- blood-brain barrier crossing [4]: able to cross the blood-brain barrier
- metabolic viability, schwannoma cells compared with arachnoid cells [5]: reduces the metabolic viability of schwannoma cells more significantly
- BrdU incorporation in primary VS cells (primary human VS cells [6]; 35 μM, p=0.0002): significant decline
- cytotoxicity of VS cells (primary human VS cells [7]): significant increase
- early apoptotic cells (annexin V/propidium iodide) (HEI-193 cells [8]): slight but not significant increase
- metabolic activity of primary VS cells (primary human VS cells [9]; MTT, ten tumors, vehicle vs 35 μM p=0.002): declines with increasing concentrations
- phase of cell cycle (HEI-193 cells [10]): no significant differences
- f-actin morphology (phalloidin staining) (HEI-193 cells [11]): crumpled f-actin morphology
- caspase 3/7 activity (HEI-193 cells [12]): slight but not significant elevation
- metabolic viability of primary human Schwann cells [13]: does not adversely affect
- metabolic viability of HEI-193 cells ([14]; MTT, 72 h in culture, vehicle vs 35 μM p=0.006): decreases with increasing concentration
- number of TUNEL positive cells (HEI-193 cells [15]): no statistically significant difference
- outcome versus placebo (unresectable meningioma; double-blind, randomized Phase III trial of 164 patients): no difference between treatment and placebo
- patients with minor responses resulting in clinical benefit (unresectable meningioma; long-term clinical trial, unresectable meningioma): eight of 28

Compound: C[C@H]1C[C@@H]2[C@H]([C@@H](O)C[C@@]3(C)[C@H]2CC[C@]3(O)C(=O)CO)[C@@]2(C)C=CC(=O)C=C12 [methylprednisolone]
- HEI-193 cell metabolic activity ([14]; 27 μM): no significant effect
- metabolic activity of HEI-193 cells [14]: no effect

Compound: gold sodium thiomalate
- HEI-193 cell metabolic activity ([14]; 25, 50, 100, and 300 μM): significant effect on HEI-193 cell metabolic activity, but only at clinically unreasonable concentrations
- metabolic activity of HEI-193 cells [14]: no effect

Compound: Nc1ncnc2c1ncn2[C@@H]1O[C@H](COP(=O)(O)O)[C@@H](O)[C@H]1O [ADENOSINE MONOPHOSPHATE, ADENOSINE, adenosine monophosphate]
- HEI-193 cell metabolic activity ([14]; 5, 10, and 15 μM): no significant effect
- metabolic activity of HEI-193 cells [14]: no effect

Compound: C[C@]12C=CC(=O)C=C1CC[C@@H]1[C@@H]2[C@@H](O)C[C@@]2(C)[C@H]1CC[C@]2(O)C(=O)CO [prednisolone]
- proliferation of primary VS cells (primary human VS cells [6]; 25 μM, 72 h): no effect
- metabolic activity of primary VS cells (primary human VS cells [9]; 25 μM, 72 h): modest effect
- elevation in cell death among primary VS cells versus vehicle (primary VS cells): 15.85%
- HEI-193 cell metabolic activity ([14]; 25 μM): no significant effect

Compound: O=C(O)[C@@H](S)[C@@H](S)C(=O)O [succimer]
- HEI-193 cell metabolic activity ([14]; 25, 50, and 100 μM): no significant effect
- metabolic activity of HEI-193 cells [14]: no effect
